Test [1] has as its system MPTP-induced PD mouse model. The test can be described thus: MPTP-induced PD mouse model: TH staining of striatum and substantia nigra. The class given is in vivo. To be noted: for TH levels in the substantia nigra / TH levels in the striatum: vs control group (G1); for TH levels in substantia nigra / TH levels in striatum: PO QD Day 1-7, Example 3 2/10/50 mg/kg, Example 2 50 mg/kg, vs MPTP group G2; for TH levels in striatum: Nilotinib 40 mg/kg. As for the experimental part:
Mice at 7 weeks of age were divided into 7 groups as shown in Table 9 below to generate an acute MPTP model and proceed with drug administration: control group+vehicle (G1), MPTP+vehicle (G2), MPTP+Nilotinib 40 mg/kg (G3), MPTP+Example 3 2 mg/kg (G4), MPTP+Example 3 10 mg/kg (G5), MPTP+Example 3 50 mg/kg (G6), and MPTP+Example 2 50 mg/kg (G7). The test drug was administered orally (PO) at 10 ml/kg once daily (QD) from Day 1 to Day 7. The acute MPTP model will be performed at 2-hour intervals in all groups except the control group. […] was administered as intraperitoneal (IP) injection for 4 doses. The control group was given the same amount of 0.9% saline. The Pole test was performed on day 4 (after training on day 2 and day 3). On day 7, all mice were euthanized, and their brains were harvested.
Mice were euthanized with Zoletil administration for collection of tissue samples for staining and analysis of histological sections. Blood was collected from the heart of the mouse and then the residual blood was perfused with phosphate-buffered saline (PBS). For half of the mice (n=6/group), the brain was incised into the striatum, substantia nigra, and the rest of the brain, flash-frozen, and stored at −80° C. The remaining mice (n=6/group) had their brains isolated and immobilized in 4% paraformaldehyde for 24 hours at 4° C., followed by 30% sucrose in phosphate-buffered saline (PBS) containing 0.02% sodium azide and stored at 4° C. for 3 days. Immunohistochemical sections were performed on brain samples embedded with optimal cutting temperature (OCT) compounds. Samples were sectioned to a thickness of 20 μm using Leica CM1950 (Leica Microsystems, Germany) and stored at 4° C. in a preservation solution until staining with antibodies.
After staining the striatum and substantia nigra of the brain and mounting them on microscopic slides, the slides were washed with PBS containing 0.3% Triton X-100 and peroxidase block for 15 min at room temperature. The slides were washed three times with PBS containing 0.3% Triton X-100 and then blocked at RT (room temperature) for 1 hour in a solution containing PBS, 5% normal goat serum, and 0.3% Triton X-100. Tyrosine hydroxylase antibody was diluted at 1:1000 and incubated overnight at 4° C. The slides were washed with PBS solution and incubated for 1 h at RT with secondary antibody. The slides were washed with PBS solution and the sections were placed in the solution to proceed with the DAB (diaminobenzidine) reaction.
The DAB response was monitored under a microscope for 2 to 3 minutes, and the slides were washed with PBS to stop the DAB response, dehydrated, and mounted using xylene. An Olympus microscope (Olympus, SZ61, BX51) was used to visualize TH stained images. The optical density (OD) value of positive TH staining was measured in the striatum and substantia nigra and analyzed using Image J software.

Test [2] relates to α-Syn transgenic Parkinson's disease mouse model. In words: α-Syn transgenic Parkinson's disease mouse model: TH staining of striatum. The class given is in vivo. To be noted: 9 months of age; Example 3 2/10/50 mg/kg, Example 2 2 mg/kg PO QD; vs G2. As for the experimental part: The test drug was administered once daily (QD) via oral administration (PO) with a solution of 5 ml/kg for 5 months from 4 months to 9 months of age. Motor behavior tests (beam test) and neurological scores (modified Irwin test) were performed at 4 months (before administration), 7 months, and 9 months. After the final behavioral test, tissue samples were taken. Weight was measured on the same day once a week from 4 months of age until the end of the study.
At 9 months of age, the measurement period ended, the mice were anesthetized, and then the experiment was terminated by cardiac puncture according to IACUC guidelines. Mice were perfused transcardially with 0.9% saline for tissue staining, followed by 4% paraformaldehyde until the mice were fixed. The brains were isolated and immobilized by soaking in 4% paraformaldehyde at 4° C. for 24 hours, followed by 30% sucrose added to PBS containing 0.02% sodium azide and stored at 4° C. for 3 days. Brain samples embedded in OCT compounds were sectioned to a thickness of 20 μm using Leica CM1950 (Leica Microsystems, Germany). The sections were stored at 4° C. in a preservation solution until they were stained by antibodies. […]
TH-stained brain tissue was imaged using an immunofluorescence microscope (Olympus, BZ21) in Olympus. The fluorescence intensity of the striatum was analyzed using Image J software.

Consider `Cc1cc(F)c(C(=O)Nc2cccc(-n3nnc4c3CCC4)n2)cc1-n1cnc(C2CC2)c1` [Example 2, 5-(4-cyclopropyl-1H-imidazole-1-yl)-N-(6-(5,6-dihydrocyclopenta[d][1,2,3]triazole-1 (4H)-yl)pyridine-2-yl)-2-fluoro-4-methylbenzamide], for which the “TH levels in the substantia nigra” value in test [1] (50 mg/kg PO QD) was “significantly higher than in the control group (G1)”. In test [1], the “TH levels in substantia nigra” value is “significant increase” and the “TH levels in striatum” value was “significant increase”. Further, the “TH staining intensity of striatum” value in test [2] is reported as “significantly higher than that of group G2”.
Take `Cc1cc(F)c(C(=O)Nc2cccc(-n3nnc4c3CCCC4)n2)cc1-n1cnc(C2CC2)c1` [Example 3, 5-(4-cyclopropyl-1H-imidazole-1-yl)-2-fluoro-4-methyl-N-(6-(4,5,6,7-tetrahydro-1H-benzo[d][1,2,3]triazole-1-yl)pyridine-2-yl)benzamide]: in test [1] (10 mg/kg PO QD), the “TH levels in the striatum” value is given as “significantly higher than in the control group (G1)” and the “TH levels in the substantia nigra” value was “significantly higher than in the control group (G1)”. In test [1] (50 mg/kg PO QD), the “TH levels in the striatum” value is reported as “significantly higher than in the control group (G1)” and the “TH levels in the substantia nigra” value was “significantly higher than in the control group (G1)”. Moreover, in test [1], the “TH levels in substantia nigra” value is given as “significant increase” and the “TH levels in striatum” value is “significant increase”. Also, in test [2], the “TH staining intensity of striatum” value is on record as “significantly higher than that of group G2”.

The values above are taken from patent US20260138969A1 (Korea Research Institute of Chemical Technology, priority 2023, published 2026).
